Test results published in patent US5814649A, “Preventive and remedy for type 1 allergic diseases” (priority 1994, dated 1998).

Legend:
[1] = system: OVA-sensitized rat anaphylactic models; assay: Survival of OVA-sensitized BN rats after anaphylactic shock induced by OVA (Example 1); assay type: in vivo, BN/Crj rats (female); details: for Survival Rate: day 0 to 9, OVA challenge day 10
Method: (§1) Using female BN/Crj rats of 7 weeks old, sensitization by OVA was carried out as described below.
(§2) 10 mg/kg of OVA and 300 mg/kg of aluminum hydroxide (Alum) were intraperitoneally given (10 ml/kg) on the day (day 0) of administration. On day 3, 7 and 9 after the sensitization, blood samples were collected, the serum was separated and IgE concentration was determined. On day 10 after the sensitization, 60 mg/kg of OVA dissolved in physiological saline was given to the rats from the tail vein to cause anaphylactic shock. On the other hand, blood samples were collected at the jugular vein before and after the induction of the anaphylactic shock by OVA, and, after separation of the plasma, histamine level was determined.
(§3) The drug suspended in 1% carboxymethylcellulose (CMC) was repeatedly given orally once a day from day 0 to 9. […] All animals in each group were weighed in the morning once a week and the drug was given upon the body weights as weighed. To the solvent control group was given a 1% CMC solution. And further, non-medicated groups and non-treated groups were prepared. No treatment was applied to the non-treated group. The test was carried out using 6 rats per group.
(§4) The effect of the anilide compounds (I) on BN rats was evaluated from the survival rates of BN rats, the IgE levels in the sera and the histamine levels in the plasma before and after the induction of anaphylactic shock by OVA.

[2] = system: IgE; assay: Serum IgE level of OVA-sensitized BN rats by sandwich-type ELISA (Example 1); assay type: in vivo, BN/Crj rats (female); details: day 9 after OVA sensitization, mean ± SD
Method: as §1, §2, §3, §4
The IgE level in sera was determined using the homemade sandwich-type ELISA system.

[3] = system: histamine; assay: Plasma histamine level before and after induction of anaphylactic shock by OVA (Example 1); assay type: in vivo, BN/Crj rats (female); details: 10 mg/kg orally once a day, ± SD; for Histamine amount, after OVA challenge: day 10, after OVA challenge; for Histamine amount, before OVA challenge: day 10, before OVA challenge
Method: as §1, §2, §3
Then, the plasma histamine levels before and after the induction of the anaphylactic shock by OVA on day 10 after OVA sensitization were determined as a parameter for allergic reactions.

[4] = system: autoimmune diseases such as articular rheumatism, systemic lupus erythematosus and the like; details: diseased animal models; cited from earlier work
[5] = system: OVA-sensitized rat anaphylactic models; assay: Minimum effective dose of leflunomide: survival of OVA-sensitized BN rats after anaphylactic shock (Example 2); assay type: in vivo, BN/Crj rats (female); details: for Survival Rate: day 0 to 9
Method: (§5) Using female BN/Crj rats of 7 weeks old, sensitization by OVA was carried out as described below. 10 mg/kg of OVA and 300 mg/kg of aluminum hydroxide (Alum) were intraperitoneally given on the day (day 0) of administration. Blood samples were collected on day 3, 5, 7 and 9 after the sensitization, the serum was separated and IgE concentration was determined. And, 60 mg/kg of the OVA dissolved in physiological saline was given to the rats from the tail vein to cause anaphylactic shock.
(§6) The drug suspended in 1% carboxymethylcellulose (CMC) was repeatedly given orally once a day from day 0 to 9. […] All animals in each group were weighed in the morning once a week and the drug was given upon the body weights as weighed. A 1% CMC solution was given to the solvent control group. And further, non-treated group was prepared as control to which no treatment was applied. The test was carried out using 6 rats per group.

[6] = system: IgE; assay: Minimum effective dose of leflunomide: serum IgE level of OVA-sensitized BN rats (Example 2); assay type: in vivo, BN/Crj rats (female); details: for Serum IgE amount: day 9 after OVA, ± SD
Method: as §5, §6

[7] = after administration; cited from earlier work
[8] = system: mast cells; details: cited from earlier work
[9] = system: mice; details: cited from earlier work
[10] = leflunomide 0.5 mg/kg orally once a day
[11] = leflunomide 1 mg/kg orally once a day
[12] = leflunomide 2 mg/kg orally once a day

C/C(O)=C(\C#N)C(=O)Nc1ccc(C(F)(F)F)cc1 [Compound A, N-(4-trifluoromethylphenyl)-2-cyano-3-hydroxy-crotonamide]
Survival Rate ([1]; 10 mg/kg orally once a day): 33%
IgE amount in sera ([2]; 10 mg/kg orally once a day): 0.3 ± 0.0 µg/mL
Histamine amount, after OVA challenge [3]: 0.1 ± 0.0 µM
Histamine amount, before OVA challenge [3]: 0.2 ± 0.1 µM
effect on autoimmune diseases [4]: have an effect on autoimmune diseases such as articular rheumatism, systemic lupus erythematosus and the like

Cc1cc(NC(=O)C(C#N)C(=O)C2CC2)ccc1C(F)(F)F (centres unmarked) [Compound B, 1-(3-methyl-4-trifluoromethylphenylcarbamoyl)-2-cyclopropyl-2-oxo-propionitrile]
Survival Rate ([1]; 10 mg/kg orally once a day): 100%
IgE amount in sera ([2]; 10 mg/kg orally once a day): 0.6 ± 0.5 µg/mL
Histamine amount, after OVA challenge [3]: 1.3 ± 1.8 µM
Histamine amount, before OVA challenge [3]: 0.4 ± 0.1 µM

CN(C(=O)C(C#N)C(=O)C1CC1)c1ccc(Cl)cc1 (centres unmarked) [Compound C, 2-cyano-3-cyclopropyl-3-oxo-N-methyl-N-(4-chlorophenyl)-propionamide]
Survival Rate ([1]; 10 mg/kg orally once a day): 100%
IgE amount in sera ([2]; 10 mg/kg orally once a day): 0.5 ± 0.1 µg/mL
Histamine amount, after OVA challenge [3]: 0.1 ± 0.0 µM
Histamine amount, before OVA challenge [3]: 0.3 ± 0.2 µM

N#Cc1ccc(NC(=O)C(C#N)C(=O)C2CC2)cc1 (centres unmarked) [Compound D, 2-cyano-3-cyclopropyl-3-oxo-(4-cyanophenyl) propionamide]
Survival Rate ([1]; 10 mg/kg orally once a day): 100%
IgE amount in sera ([2]; 10 mg/kg orally once a day): 0.6 ± 0.1 µg/mL
Histamine amount, after OVA challenge [3]: 0.6 ± 0.5 µM
Histamine amount, before OVA challenge [3]: 0.4 ± 0.2 µM

C#CCCC(=O)C(C#N)C(=O)Nc1ccc(C(F)(F)F)cc1 (centres unmarked) [Compound E, 2-cyano-3-oxo-N-[4-(trifluoromethyl)phenyl]-6-heptinamide]
Survival Rate ([1]; 10 mg/kg orally once a day): 100%
IgE amount in sera ([2]; 10 mg/kg orally once a day): 0.4 ± 0.1 µg/mL
Histamine amount, after OVA challenge [3]: 0.1 ± 0.0 µM
Histamine amount, before OVA challenge [3]: 0.3 ± 0.1 µM

Cc1oncc1C(=O)Nc1ccc(C(F)(F)F)cc1 [Leflunomide, 5-methylisoxazole-4-carboxylic acid-N-(4-trifluoromethyl) anilide]
survival without anaphylactic shock ([1]; 2 mg/kg): all animals survived without any anaphylactic shock
Survival Rate ([1]; 2 mg/kg orally once a day): 100%
IgE amount in sera ([2]; 2 mg/kg orally once a day): 0.4 ± 0.1 µg/mL
IgE amount in sera ([2]; 2 mg/kg orally once a day, listed as leflunomide): 0.4 µg/mL
Survival Rate [5, 10]: 0%
survival without anaphylactic shock ([5]; leflunomide 1 mg/kg): all animals survived without any anaphylactic shock
Survival Rate [5, 11]: 100%
survival without anaphylactic shock ([5]; leflunomide 2 mg/kg): all animals survived without any anaphylactic shock
Survival Rate [5, 12]: 100%
inhibition of increase in serum IgE level ([6]; after antigen sensitization): can inhibit an increase in the serum IgE level after the antigen sensitization
Serum IgE amount [6, 10]: 357.7 ± 119.0 µg/mL
Serum IgE amount ([6]; leflunomide 0.5 mg/kg orally once a day, listed as leflunomide): 357.7 µg/mL
Serum IgE amount [6, 11]: 0.8 ± 0.1 µg/mL
Serum IgE amount ([6]; leflunomide 1 mg/kg orally once a day, listed as leflunomide): 0.8 µg/mL
Serum IgE amount [6, 12]: 0.4 ± 0.1 µg/mL
Serum IgE amount ([6]; leflunomide 2 mg/kg orally once a day, listed as leflunomide): 0.4 µg/mL
conversion to pharmacologically active Compound A [7]: converted to pharmacologically active Compound A as defined above by rapid metabolism after administration
inhibitory effect on histamine-release from mast cells [8]: has an inhibitory effect on histamine-release from mast cells
effect on autoimmune diseases [4]: have an effect on autoimmune diseases such as articular rheumatism, systemic lupus erythematosus and the like
LD50 (p.o.) [9]: 445 mg/kg

C[C@]12C=CC(=O)C=C1CC[C@@H]1[C@@H]2[C@@H](O)C[C@@]2(C)[C@H]1CC[C@]2(O)C(=O)CO [Prednisolone]
Survival Rate ([1]; 2 mg/kg orally once a day): 0%
IgE amount in sera ([2]; 2 mg/kg orally once a day): 148.1 ± 72.0 µg/mL
IgE amount in sera ([2]; 2 mg/kg orally once a day, listed as prednisolone): 148.1 µg/mL
